Starred links: 1 amine or outer side, 2 acyl side, 3 side chain; linkers in the order of their positions; H or OH if unused. Positions of bridges follow the written chain, without caps; N, C: chain ends. Non-standard residues stand in square brackets, D forms with d. Residues, ends and D or L forms follow the SMILES beside them. *: point of attachment. X22 = O=C(O)COc1cccc(C(=O)N[C@@H](Cc2cn(CC(=O)O)c3ccccc23)C(=O)*)c1; Bip(4'-NH) = O=C([C@H](Cc1ccc(-c2ccc(N[*:3])cc2)cc1)N[*:1])[*:2]; X71 = O=C(O)Cn1cc(C[C@H](NC(=O)c2cccc(C(=O)O)c2)C(=O)*)c2ccccc21; Bip(4'-COOH) = N[C@@H](Cc1ccc(-c2ccc(C(=O)O)cc2)cc1)C(=O)O; X76 = O=C(O)CCC(=O)N[C@@H](Cc1cn(CC(=O)O)c2ccccc12)C(=O)*; X11 = CC(=O)N[C@@H](Cc1cn(CC(=O)O)c2ccccc12)C(=O)*; Ala(imidazol-2-yl) = N[C@@H](Cc1ncc[nH]1)C(=O)O; X88 = CC(=O)N[C@@H](Cc1ccc(OCC(=O)O)cc1)C(=O)*; Bip = N[C@@H](Cc1ccc(-c2ccccc2)cc1)C(=O)O; X16 = Cc1noc(-c2ccc(C(=O)*)cc2)n1; Tic = O=C(O)[C@@H]1Cc2ccccc2CN1; Cha = N[C@@H](CC1CCCCC1)C(=O)O; X20 = O=C(c1csc(-c2ccncc2)n1)*; Tle = CC(C)(C)[C@H](N)C(=O)O; Sar = CNCC(=O)O
Biological target: TNFα (Homo sapiens, UniProt P01375)
Assay: TNF-Induced HEK-Blue Assay
Type: cell-based
Conditions: HEK-Blue-CD40L cells, NF-kB-driven secreted alkaline phosphatase reporter; TNFα 0.5 ng/ml; 18 h; read-out: TNF induced HEK-Blue assay IC50 value

Sequence of TNFα (P01375 77-233 limits assumed): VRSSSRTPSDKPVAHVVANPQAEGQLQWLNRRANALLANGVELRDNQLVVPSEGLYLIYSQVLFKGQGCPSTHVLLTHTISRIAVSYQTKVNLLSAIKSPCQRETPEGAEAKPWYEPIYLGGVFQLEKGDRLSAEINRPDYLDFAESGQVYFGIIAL

Structure (SMILES): CC[C@H](C)[C@@H]1NC(=O)[C@@H](CCCNC(=N)N)NC(=O)[C@H](CC(=O)O)NC(=O)[C@H](Cc2cnc[nH]2)NC(=O)CN(C)C(=O)[C@H](Cc2ccc(-c3ccc(NC(=O)c4csc(-c5ccncc5)n4)cc3)cc2)NC(=O)[C@H](Cc2ccc(-c3ccc(C(=O)O)cc3)cc2)NC(=O)[C@H](CC2CCCCC2)NC(=O)CSC[C@@H](C(=O)NCC(N)=O)NC(=O)[C@H](CC(C)C)NC(=O)[C@H](Cc2ncc[nH]2)NC(=O)[C@H](C(C)C)NC(=O)[C@@H]2Cc3ccccc3CN2C1=O [Example 411] ({CH2CO}-[Cha][Bip(4'-COOH)][Bip(4'-NH)](X20)[Sar]HD[dR]I[Tic]V[Ala(imidazol-2-yl)]LCG-NH2; thioether N-13)
- IC50: 50 to 200 nM

Structure (SMILES): CC[C@H](C)[C@@H]1NC(=O)[C@@H](CCCNC(=N)N)NC(=O)[C@H](CC(=O)O)NC(=O)[C@H](Cc2cnc[nH]2)NC(=O)CN(C)C(=O)[C@H](Cc2ccc(-c3ccc(NC(=O)c4ccc(-c5nc(C)no5)cc4)cc3)cc2)NC(=O)[C@H](Cc2ccc(-c3ccc(C(=O)O)cc3)cc2)NC(=O)[C@H](CC2CCCCC2)NC(=O)CSC[C@@H](C(=O)NCC(N)=O)NC(=O)[C@H](CC(C)C)NC(=O)[C@H](Cc2ncc[nH]2)NC(=O)[C@H](C(C)C)NC(=O)[C@@H]2Cc3ccccc3CN2C1=O [Example 412] ({CH2CO}-[Cha][Bip(4'-COOH)][Bip(4'-NH)](X16)[Sar]HD[dR]I[Tic]V[Ala(imidazol-2-yl)]LCG-NH2; thioether N-13)
- IC50: 50 to 200 nM

Structure (SMILES): CC[C@H](C)[C@@H]1NC(=O)[C@@H](CCCNC(=N)N)NC(=O)[C@H](CC(=O)O)NC(=O)[C@H](Cc2cnc[nH]2)NC(=O)CN(C)C(=O)[C@H](Cc2ccc(-c3ccc(NC(=O)[C@H](Cc4cn(CC(=O)O)c5ccccc45)NC(=O)CCC(=O)O)cc3)cc2)NC(=O)[C@H](Cc2ccc(-c3ccccc3)cc2)NC(=O)[C@H](CC2CCCCC2)NC(=O)CSC[C@@H](C(=O)NCC(N)=O)NC(=O)[C@H](CC(C)C)NC(=O)[C@H](Cc2ncc[nH]2)NC(=O)[C@H](C(C)C)NC(=O)[C@@H]2CCCN2C1=O [Example 413] ({CH2CO}-[Cha][Bip][Bip(4'-NH)](X76)[Sar]HD[dR]IPV[Ala(imidazol-2-yl)]LCG-NH2; thioether N-13)
- IC50: 200 to 2000 nM

Structure (SMILES): CC[C@H](C)[C@@H]1NC(=O)[C@@H](CCCNC(=N)N)NC(=O)[C@H](CC(=O)O)NC(=O)[C@H](Cc2cnc[nH]2)NC(=O)CN(C)C(=O)[C@H](Cc2ccc(-c3ccc(NC(=O)[C@H](Cc4cn(CC(=O)O)c5ccccc45)NC(=O)c4cccc(OCC(=O)O)c4)cc3)cc2)NC(=O)[C@H](Cc2ccc(-c3ccccc3)cc2)NC(=O)[C@H](CC2CCCCC2)NC(=O)CSC[C@@H](C(=O)NCC(N)=O)NC(=O)[C@H](CC(C)C)NC(=O)[C@H](Cc2ncc[nH]2)NC(=O)[C@H](C(C)C)NC(=O)[C@@H]2CCCN2C1=O [Example 414] ({CH2CO}-[Cha][Bip][Bip(4'-NH)](X22)[Sar]HD[dR]IPV[Ala(imidazol-2-yl)]LCG-NH2; thioether N-13)
- IC50: 50 to 200 nM

Structure (SMILES): CC[C@H](C)[C@@H]1NC(=O)[C@@H](CCCNC(=N)N)NC(=O)[C@H](CC(=O)O)NC(=O)[C@H](Cc2cnc[nH]2)NC(=O)CN(C)C(=O)[C@H](Cc2ccc(-c3ccc(NC(=O)[C@H](Cc4cn(CC(=O)O)c5ccccc45)NC(=O)c4cccc(C(=O)O)c4)cc3)cc2)NC(=O)[C@H](Cc2ccc(-c3ccccc3)cc2)NC(=O)[C@H](CC2CCCCC2)NC(=O)CSC[C@@H](C(=O)NCC(N)=O)NC(=O)[C@H](CC(C)C)NC(=O)[C@H](Cc2ncc[nH]2)NC(=O)[C@H](C(C)C)NC(=O)[C@@H]2CCCN2C1=O [Example 415] ({CH2CO}-[Cha][Bip][Bip(4'-NH)](X71)[Sar]HD[dR]IPV[Ala(imidazol-2-yl)]LCG-NH2; thioether N-13)
- IC50: 50 to 200 nM

Structure (SMILES): CC[C@H](C)[C@@H]1NC(=O)[C@@H]2CCCN2C(=O)[C@H]([C@@H](C)CC)NC(=O)[C@@H](CCCNC(=N)N)NC(=O)[C@H](CC(=O)O)NC(=O)[C@H](Cc2ccccc2)NC(=O)CN(C)C(=O)[C@H](Cc2ccc(-c3ccc(NC(=O)[C@H](Cc4cn(CC(=O)O)c5ccccc45)NC(C)=O)cc3)cc2)NC(=O)[C@H](Cc2ccc(-c3ccc(C(=O)O)cc3)cc2)NC(=O)[C@H](C(C)(C)C)NC(=O)CSC[C@@H](C(=O)NCC(N)=O)NC(=O)[C@H](CC(C)C)NC(=O)[C@H](Cc2ncc[nH]2)NC1=O [Example 416] ({CH2CO}-[Tle][Bip(4'-COOH)][Bip(4'-NH)](X11)[Sar]FD[dR]IPI[Ala(imidazol-2-yl)]LCG-NH2; thioether N-13)
- IC50: 50 to 200 nM

Structure (SMILES): CC[C@H](C)[C@@H]1NC(=O)[C@@H]2CCCN2C(=O)[C@H]([C@@H](C)CC)NC(=O)[C@@H](CCCNC(=N)N)NC(=O)[C@H](CC(=O)O)NC(=O)[C@H](Cc2ccccc2)NC(=O)CN(C)C(=O)[C@H](Cc2ccc(-c3ccc(NC(=O)[C@H](Cc4ccc(OCC(=O)O)cc4)NC(C)=O)cc3)cc2)NC(=O)[C@H](Cc2ccc(-c3ccc(C(=O)O)cc3)cc2)NC(=O)[C@H](C(C)(C)C)NC(=O)CSC[C@@H](C(=O)NCC(N)=O)NC(=O)[C@H](CC(C)C)NC(=O)[C@H](Cc2ncc[nH]2)NC1=O [Example 417] ({CH2CO}-[Tle][Bip(4'-COOH)][Bip(4'-NH)](X88)[Sar]FD[dR]IPI[Ala(imidazol-2-yl)]LCG-NH2; thioether N-13)
- IC50: < 50 nM
